Reference: ChEMBL document CHEMBL3400079 (Bioorg Med Chem, 2015)
pKi: −log10 of the molar value.

Target: T1, AGAP002992-PA (Anopheles gambiae, UniProt Q5TU56)
T1 sequence (Q5TU56 whole entry): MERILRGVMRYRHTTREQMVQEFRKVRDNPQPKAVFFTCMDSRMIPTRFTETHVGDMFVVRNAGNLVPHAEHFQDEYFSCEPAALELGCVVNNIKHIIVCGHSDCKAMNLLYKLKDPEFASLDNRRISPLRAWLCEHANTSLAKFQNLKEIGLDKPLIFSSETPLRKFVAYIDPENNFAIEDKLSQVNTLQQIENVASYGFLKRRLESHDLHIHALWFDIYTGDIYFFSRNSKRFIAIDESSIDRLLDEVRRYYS
Description: Inhibition of Anopheles gambiae carbonic anhydrase pre-incubated for 15 mins by stopped-flow CO2 hydration assay

| SMILES | pKi |
| --- | --- |
| NS(=O)(=O)c1ccc(CCNS(=O)(=O)c2ccc([N+](=O)[O-])cc2CO)cc1 | 8.21 |
| NS(=O)(=O)c1cccc(S(N)(=O)=O)c1 | 6.07 |
| NS(=O)(=O)c1cc(Cl)cc(Cl)c1O | 5.19 |
| Nc1nnc(S(N)(=O)=O)s1 | 6.13 |
| Nc1cc(Cl)c(S(N)(=O)=O)cc1S(N)(=O)=O | 6.12 |
| Nc1ccc(S(=O)(=O)Nc2nnc(S(N)(=O)=O)s2)cc1 | 8.17 |
| Nc1ccc(S(=O)(=O)Nc2ccc(S(N)(=O)=O)cc2)cc1 | 7.08 |
| Nc1nccc(Nc2ccc(S(N)(=O)=O)cc2)n1 | 4.97 |
| Cn1nc(S(N)(=O)=O)sc1=N | 5.77 |
| NCCc1ccc(S(N)(=O)=O)cc1 | 6.08 |
| Nc1ccc(S(=O)(=O)NCCc2ccc(S(N)(=O)=O)cc2)cc1 | 7.33 |
| NS(=O)(=O)c1ccc(S(=O)(=O)Nc2cccc3c(Cl)c[nH]c23)cc1 | 6.65 |
| Nc1cc(C(F)(F)F)c(S(N)(=O)=O)cc1S(N)(=O)=O [2,4-DISULFAMYLTRIFLUOROMETHYLANILINE] | 5.36 |
| NS(=O)(=O)c1nnc(NS(=O)(=O)c2ccccc2)s1 [BENZOLAMIDE] | 8.01 |
| CCN[C@H]1CN(CCCOC)S(=O)(=O)c2sc(S(N)(=O)=O)cc21 [BRINZOLAMIDE] | 7.50 |
| Cc1ccc(-c2cc(C(F)(F)F)nn2-c2ccc(S(N)(=O)=O)cc2)cc1 [CELECOXIB] | 6.76 |
| CCOc1ccc2nc(S(N)(=O)=O)sc2c1 [ETHOXZOLAMIDE] | 6.73 |
| O=C1NS(=O)(=O)c2ccccc21 [SACCHARIN] | 7.02 |
| CC1(C)O[C@@H]2[C@@H](CO[C@@]3(COS(N)(=O)=O)OC(C)(C)O[C@@H]23)O1 [TOPIRAMATE] | < 4.00 |

Continued, values first:

| pKi | SMILES |
| --- | --- |
| < 4.00 | NS(=O)(=O)c1ccc(O)cc1 |
| 7.09 | Nc1ccc(S(=O)(=O)NCc2ccc(S(N)(=O)=O)cc2)cc1 |
| 6.07 | Nc1ccc(S(N)(=O)=O)cc1Br |
| < 4.00 | NS(=O)(=O)c1ccc(CCO)cc1 |
| 6.05 | Nc1cccc(S(N)(=O)=O)c1 |
| 6.04 | Nc1ccc(S(N)(=O)=O)cc1F |
| < 4.00 | NS(=O)(=O)c1ccc(CO)cc1 |
| 4.91 | Nc1ccc(S(N)(=O)=O)cc1Cl |
| 4.87 | NCc1ccc(S(N)(=O)=O)cc1 [MAFENIDE] |
| 4.91 | Cc1ccc(S(N)(=O)=O)cc1 [P-TOLUENESULFONAMIDE] |
| 6.06 | Nc1ccc(S(N)(=O)=O)cc1 [SULFANILAMIDE] |
